# Patent publication US4681893A, “Trans-6-[2-(3- or 4-carboxamido-substituted pyrrol-1-yl)alkyl]-4-hydroxypyran-2-one inhibitors of cholesterol synthesis” (Warner-Lambert Company, priority 1986, dated 1987)
# Assays:
# [1] = system: biosynthesis of cholesterol (sterol synthesis) in rat liver homogenate; experiment: CSI screen: inhibition of sterol synthesis (incorporation of cholesterol-14C-acetate into nonsaponifiable lipid) by rat liver homogenate; format: biochemical; details: one-hour period, cholestyramine-fed rats, read-out: IC50 (Micromoles/liter) CSI
# Description: The ability of compounds of the present invention to inhibit the biosynthesis of cholesterol was measured by two methods. A first method (designated CSI screen) utilized the procedure described by R. E. Dugan et al., Archiv. Biochem. Biophys., (1972), 152, 21-27. In this method, the level of HMG-CoA enzyme activity in standard laboratory rats is increased by feeding the rats a chow diet containing 5% cholestyramine for four days, after which the rats are sacrificed.
# The rat livers are homogenized, and the incorporation of cholesterol-^14 C-acetate into nonsaponifiable lipid by the rat liver homogenate is measured. The micromolar concentration of compound required for 50% inhibition of sterol synthesis over a one-hour period is measured, and expressed as an IC50 value.
# [2] = target: T1, HMG-CoA reductase (Rattus norvegicus, UniProt P51639); experiment: COR screen: conversion of 14C-HMG-CoA to 14C-mevalonate by a purified HMG-CoA reductase preparation; format: biochemical; details: purified enzyme preparation of HMG-CoA reductase, read-out: IC50 (Micromoles/liter) COR
# T1 sequence (P51639 1-887): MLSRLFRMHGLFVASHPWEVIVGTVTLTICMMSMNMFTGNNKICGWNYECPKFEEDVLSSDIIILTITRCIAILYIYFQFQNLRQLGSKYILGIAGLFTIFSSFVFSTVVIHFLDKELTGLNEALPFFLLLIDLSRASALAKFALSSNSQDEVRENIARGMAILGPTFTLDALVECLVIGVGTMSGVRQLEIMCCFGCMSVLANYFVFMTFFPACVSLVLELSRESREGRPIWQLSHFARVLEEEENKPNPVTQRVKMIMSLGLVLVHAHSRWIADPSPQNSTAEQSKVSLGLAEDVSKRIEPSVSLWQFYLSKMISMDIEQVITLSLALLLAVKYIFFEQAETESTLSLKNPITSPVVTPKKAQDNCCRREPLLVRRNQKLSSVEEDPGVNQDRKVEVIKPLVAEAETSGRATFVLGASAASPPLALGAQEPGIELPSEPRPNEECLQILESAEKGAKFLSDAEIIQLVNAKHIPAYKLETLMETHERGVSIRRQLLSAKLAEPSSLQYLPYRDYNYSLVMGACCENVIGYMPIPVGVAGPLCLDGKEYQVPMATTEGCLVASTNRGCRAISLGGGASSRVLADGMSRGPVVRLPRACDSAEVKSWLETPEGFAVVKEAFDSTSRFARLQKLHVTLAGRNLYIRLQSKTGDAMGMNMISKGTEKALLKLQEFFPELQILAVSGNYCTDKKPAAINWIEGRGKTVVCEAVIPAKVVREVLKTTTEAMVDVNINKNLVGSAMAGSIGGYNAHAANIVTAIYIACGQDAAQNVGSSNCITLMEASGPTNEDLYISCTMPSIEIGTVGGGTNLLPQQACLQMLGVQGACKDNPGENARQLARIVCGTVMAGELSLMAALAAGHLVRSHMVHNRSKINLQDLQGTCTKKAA
# Description: A second method (designated COR screen) employed the procedure detailed by T. Kita, et al., J. Clin. Invest., (1980), 66: 1094-1100. In this method, the amount of ^14 C-HMG-CoA converted to ^14 C-mevalonate in the presence of a purified enzyme preparation of HMG-CoA reductase was measured. The micromolar concentration of compound required for 50% inhibition of cholesterol synthesis was measured and recorded as an IC50 value.
IC50 [2] [nM],SMILES,IC50 [1] [nM]
50,"CC(C)c1c(C(=O)Nc2ccccc2)c(-c2ccccc2)c(-c2ccc(F)cc2)n1CC[C@H]1C[C@H](O)CC(=O)O1 (relative stereo) [Compound 1, trans-5-(4-fluorophenyl)-2-(1-methylethyl)-N,4-diphenyl-1-[2-(tetrahydro-4-hydroxy-6-oxo-2H-pyran-2-yl)ethyl]-1H-pyrrole-3-carboxamide]",35
400,"O=C1C[C@@H](O)C[C@H](CCn2c(-c3ccc(F)cc3)c(C(=O)Nc3ccccc3)c(-c3ccccc3)c2C(F)(F)F)O1 (relative stereo) [Compound 2, trans-2-(4-fluorophenyl)-N,4-diphenyl-1-[2-(tetrahydro-4-hydroxy-6-oxo-2H-pyran-2-yl)ethyl]-5-(trifluoromethyl)-pyrrole-3-carboxamide]",400
20,"O=C1C[C@@H](O)C[C@H](CCn2c(-c3ccc(F)cc3)c(-c3ccccc3)c(C(=O)Nc3ccccc3)c2C(F)(F)F)O1 (relative stereo) [Compound 3, trans-5-(4-fluorophenyl)-N,4-diphenyl-1-[2-(tetrahydro-4-hydroxy-6-oxo-2H-pyran-2-yl)ethyl]-2-(trifluoromethyl)-pyrrole-3-carboxamide]",18
,"CC[C@H](C)C(=O)O[C@H]1CCC=C2C=C[C@H](C)[C@H](CC[C@@H]3C[C@@H](O)CC(=O)O3)[C@H]21 [Compactin, reference compound]",26
